Reference: patent US11759462B2, “Spirocyclic compounds as tryptophan hydroxylase inhibitors” (priority 2013, dated 2023)

The molecules below were run against T1, Recombinant human TPH1 (MBP tagged) (Homo sapiens, UniProt P17752) (assay: TPH1 in vitro inhibition assay (kinetic fluorescence)). Conditions: read-out: TPH1 Range (TPH1 inhibition IC50).
T1 construct: cloning full length human TPH1 cDNA in to a bacterial pMAL-c5E expression vector; made in house; host or cells: E. coli BL21 (DE3)
T1 sequence (P17752 1-444): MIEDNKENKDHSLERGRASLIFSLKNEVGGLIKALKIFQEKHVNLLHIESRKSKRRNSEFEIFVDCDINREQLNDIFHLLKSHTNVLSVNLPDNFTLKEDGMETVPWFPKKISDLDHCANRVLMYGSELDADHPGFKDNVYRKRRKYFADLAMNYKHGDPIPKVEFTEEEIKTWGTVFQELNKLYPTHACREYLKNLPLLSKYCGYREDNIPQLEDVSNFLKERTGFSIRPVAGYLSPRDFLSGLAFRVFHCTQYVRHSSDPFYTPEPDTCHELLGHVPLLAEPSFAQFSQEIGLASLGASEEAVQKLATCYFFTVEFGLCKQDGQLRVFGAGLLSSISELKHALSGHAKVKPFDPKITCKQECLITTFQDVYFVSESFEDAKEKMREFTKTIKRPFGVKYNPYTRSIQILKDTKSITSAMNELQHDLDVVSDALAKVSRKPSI
Assay type: biochemical
How it was run: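 Final mix: 15 nM MBP-TPH1, 30 μM Trp, 36 μM 6-methyltetrahydropterin, 25 μM ferrous ammonium sulfate, 50 mM MES pH 7.1, 1% DMSO, room temperature.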

SMILES	IC50 [nM]
Cc1ccn(-c2cc(-c3ccc(C(=O)N(C)C)cc3)ccc2[C@@H](Oc2cc(N3CCC4(CC3)CN[C@H](C(=O)O)C4)nc(N)n2)C(F)(F)F)n1 [Example 1ck, (S)-8-(2-amino-6-((R)-1-(4′-(dimethylcarbamoyl)-3-(3-methyl-1H-pyrazol-l-y)-[1,1′-biphenyl]-4-yl)-2,2,2-trifluoroethoxy)pyrimidin-4-yl)-2,8-diazaspiro[4.5]decane-3-carboxylic acid]	< 50
Cc1ccn(-c2cc(-c3ccc(OCC(C)C)cc3)ccc2[C@@H](Oc2cc(N3CCC4(CC3)CN[C@H](C(=O)O)C4)nc(N)n2)C(F)(F)F)n1 [Example 1cl, (S)-8-(2-amino-6-((R)-2,2,2-trifluoro-1-(4′-isobutoxy-3-(3-methyl-1H-pyrazol-1-yl)-[1,1′-biphenyl]-4-yl)ethoxy)pyrimidin-4-yl)-2,8-diazaspiro[4.5]decane-3-carboxylic acid]	< 50
Cc1ccn(-c2cc(-c3ccc(OCC(C)(C)C)cc3)ccc2[C@@H](Oc2cc(N3CCC4(CC3)CN[C@H](C(=O)O)C4)nc(N)n2)C(F)(F)F)n1 [Example 1cn, (S)-8-(2-amino-6-((R)-2,2,2-trifluoro-1-(3-(3-methyl-1H-pyrazol-1-yl)-4′-(neopentyloxy)-[1,1′-biphenyl]-4-yl)ethoxy)pyrimidin-4-yl)-2,8-diazaspiro[4.5]decane-3-carboxylic acid]	< 50
Cc1ccn(-c2cc(-c3ccc(C)c(CO)c3)ccc2[C@@H](Oc2cc(N3CCC4(CC3)CN[C@H](C(=O)O)C4)nc(N)n2)C(F)(F)F)n1 [Example 1cq, (S)-8-(2-amino-6-((R)-2,2,2-trifluoro-1-(3′-(hydroxymethyl)-4′-methyl-3-(3-methyl-1H-pyrazol-1-yl)-[1,1′-biphenyl]-4-yl)ethoxy)pyrimidin-4-yl)-2,8-diazaspiro[4.5]decane-3-carboxylic acid]	< 50
Cc1ccn(-c2cc(-c3ccc(CO)c(C)c3)ccc2[C@@H](Oc2cc(N3CCC4(CC3)CN[C@H](C(=O)O)C4)nc(N)n2)C(F)(F)F)n1 [Example 1cr, (S)-8-(2-amino-6-((R)-2,2,2-trifluoro-1-(4′-(hydroxymethyl)-3′-methyl-3-(3-methyl-1H-pyrazol-1-yl)-[1,1′-biphenyl]-4-yl)ethoxy)pyrimidin-4-yl)-2,8-diazaspiro[4.5]decane-3-carboxylic acid]	< 50
Cc1ccn(-c2cc(C3=CCNCC3)ccc2[C@@H](Oc2cc(N3CCC4(CC3)CN[C@H](C(=O)O)C4)nc(N)n2)C(F)(F)F)n1 [Example 1f, (S)-8-(2-amino-6-((R)-2,2,2-trifluoro-1-(2-(3-methyl-1H-pyrazol-1-yl)-4-(1,2,3,6-tetrahydropyridin-4-yl)phenyl)ethoxy)pyrimidin-4-yl)-2,8-diazaspiro[4.5]decane-3-carboxylic acid]	50 to 300
Cc1ccn(-c2cc(-c3cnoc3)ccc2[C@@H](Oc2cc(N3CCC4(CC3)CN[C@H](C(=O)O)C4)nc(N)n2)C(F)(F)F)n1 [Example 1i, (S)-8-(2-amino-6-((R)-2,2,2-trifluoro-1-(4-(isoxazol-4-yl)-2-(3-methyl-1H-pyrazol-1-yl)phenyl)ethoxy)pyrimidin-4-yl)-2,8-diazaspiro[4.5]decane-3-carboxylic acid]	50 to 300
COc1ncc(-c2ccc([C@@H](Oc3cc(N4CCC5(CC4)CN[C@H](C(=O)O)C5)nc(N)n3)C(F)(F)F)c(-n3ccc(C)n3)c2)cn1 [Example 1r, (S)-8-(2-amino-6-((R)-2,2,2-trifluoro-1-(4-(2-methoxypyrimidin-5-yl)-2-(3-methyl-1H-pyrazol-1-yl)phenyl)ethoxy)pyrimidin-4-yl)-2,8-diazaspiro[4.5]decane-3-carboxylic acid]	< 50
Cc1ccn(-c2cc(-c3ccc4cccnc4c3)ccc2[C@@H](Oc2cc(N3CCC4(CC3)CN[C@H](C(=O)O)C4)nc(N)n2)C(F)(F)F)n1 [Example 1z, (S)-8-(2-amino-6-((R)-2,2,2-trifluoro-1-(2-(3-methyl-1H-pyrazol-1-yl)-4-(quinolin-7-yl)phenyl)ethoxy)pyrimidin-4-yl)-2,8-diazaspiro[4.5]decane-3-carboxylic acid]	< 50

Further lines, results first:

IC50 [nM]	SMILES
< 50	CCN(CC)C(=O)c1ccc(-c2ccc([C@@H](Oc3cc(N4CCC5(CC4)CN[C@H](C(=O)O)C5)nc(N)n3)C(F)(F)F)c(-n3ccc(C)n3)c2)cc1 [Example 1cm, (S)-8-(2-amino-6-((R)-1-(4′-(diethylcarbamoyl)-3-(3-methyl-1H-pyrazol-1-yl)-[l,l′-biphenyl]-4-yl)-2,2,2-trifluoroethoxy)pyrimidin-4-yl)-2,8-diazaspiro[4.5]decane-3-carboxylic acid]
< 50	Cc1ccn(-c2cc(-c3ccc4c(c3)CCCO4)ccc2[C@@H](Oc2cc(N3CCC4(CC3)CN[C@H](C(=O)O)C4)nc(N)n2)C(F)(F)F)n1 [Example 1co, (S)-8-(2-amino-6-((R)-1-(4-(chroman-6-yl)-2-(3-methyl-1H-pyrazol-1-yl)phenyl)-2,2,2-trifluoroethoxy)pyrimidin-4-yl)-2,8-diazaspiro[4.5]decane-3-carboxylic acid]
< 50	CCOc1ccc(-c2ccc([C@@H](Oc3cc(N4CCC5(CC4)CN[C@H](C(=O)O)C5)nc(N)n3)C(F)(F)F)c(-n3ccc(C)n3)c2)cn1 [Example 1cs, (S)-8-(2-amino-6-((R)-1-(4-(6-ethoxypyridin-3-yl)-2-(3-methyl-1H-pyrazol-1-yl)phenyl)-2,2,2-trifluoroethoxy)pyrimidin-4-yl)-2,8-diazaspiro[4.5]decane-3-carboxylic acid]
< 50	Cc1ccn(-c2cc(-c3cccc(C(=O)O)c3)ccc2[C@@H](Oc2cc(N3CCC4(CC3)CN[C@H](C(=O)O)C4)nc(N)n2)C(F)(F)F)n1 [Example 1d, (S)-8-(2-amino-6-((R)-1-(3′-carboxy-3-(3-methyl-1H-pyrazol-1-yl)-[1,1′-biphenyl]-4-yl)-2,2,2-trifluoroethoxy)pyrimidin-4-yl)-2,8-diazaspiro[4.5]decane-3-carboxylic acid]
50 to 300	Cc1ccn(-c2cc(C3=CCOCC3)ccc2[C@@H](Oc2cc(N3CCC4(CC3)CN[C@H](C(=O)O)C4)nc(N)n2)C(F)(F)F)n1 [Example 1j, (S)-8-(2-amino-6-((R)-1-(4-(3,6-dihydro-2H-pyran-4-yl)-2-(3-methyl-1H-pyrazol-1-yl)phenyl)-2,2,2-trifluoroethoxy)pyrimidin-4-yl)-2,8-diazaspiro[4.5]decane-3-carboxylic acid]
< 50	CC(=O)N1CC=C(c2ccc([C@@H](Oc3cc(N4CCC5(CC4)CN[C@H](C(=O)O)C5)nc(N)n3)C(F)(F)F)c(-n3ccc(C)n3)c2)CC1 [Example 1k, (S)-8-(6-((R)-1-(4-(1-acetyl-1,2,3,6-tetrahydropyridin-4-yl)-2-(3-methyl-1H-pyrazol-1-yl)phenyl)-2,2,2-trifluoroethoxy)-2-aminopyrimidin-4-yl)-2,8-diazaspiro[4.5]decane-3-carboxylic acid]
< 50	CCOc1ccc(-c2ccc([C@@H](Oc3cc(N4CCC5(CC4)CN[C@H](C(=O)O)C5)nc(N)n3)C(F)(F)F)c(-n3ccc(C)n3)c2)cc1 [Example 1q, (S)-8-(2-amino-6-((R)-1-(4′-ethoxy-3-(3-methyl-1H-pyrazol-1-yl)-[1,1′-biphenyl]-4-yl)-2,2,2-trifluoroethoxy)pyrimidin-4-yl)-2,8-diazaspiro[4.5]decane-3-carboxylic acid]
< 50	COc1ccc(-c2ccc([C@@H](Oc3cc(N4CCC5(CC4)CN[C@H](C(=O)O)C5)nc(N)n3)C(F)(F)F)c(-n3ccc(C)n3)c2)cn1 [Example 1s, (S)-8-(2-amino-6-((R)-2,2,2-trifluoro-1-(4-(6-methoxypyridin-3-yl)-2-(3-methyl-1H-pyrazol-1-yl)phenyl)ethoxy)pyrimidin-4-yl)-2,8-diazaspiro[4.5]decane-3-carboxylic acid]
< 50	Cc1ccn(-c2cc(-c3ccccc3)ccc2[C@@H](Oc2cc(N3CCC4(CC3)CN[C@H](C(=O)O)C4)nc(N)n2)C(F)(F)F)n1 [Example 1u, (S)-8-(2-amino-6-((R)-2,2,2-trifluoro-1-(3-(3-methyl-H-pyrazol-1-yl)-[1,1′-biphenyl]-4-yl)ethoxy)pyrimidin-4-yl)-2,8-diazaspiro[4.5]decane-3-carboxylic acid]
< 50	Cc1ccn(-c2cc(-c3cccc(C#N)c3)ccc2[C@@H](Oc2cc(N3CCC4(CC3)CN[C@H](C(=O)O)C4)nc(N)n2)C(F)(F)F)n1 [Example 1w, (S)-8-(2-amino-6-((R)-1-(3′-cyano-3-(3-methyl-1H-pyrazol-1-yl)-[1,1′-biphenyl]-4-yl)-2,2,2-trifluoroethoxy)pyrimidin-4-yl)-2,8-diazaspiro[4.5]decane-3-carboxylic acid]
< 50	CC(=O)NCc1ccc(-c2ccc([C@@H](Oc3cc(N4CCC5(CC4)CN[C@H](C(=O)O)C5)nc(N)n3)C(F)(F)F)c(-n3ccc(C)n3)c2)cc1 [Example 1x, (S)-8-(6-((R)-1-(4′-(acetamidomethyl)-3-(3-methyl-1H-pyrazol-1-yl)-[1,1′-biphenyl]-4-yl)-2,2,2-trifluoroethoxy)-2-aminopyrimidin-4-yl)-2,8-diazaspiro[4.5]decane-3-carboxylic acid]
